Results taken from patent publication US20240307373A1, “METHODS OF USE AND COMPOSITIONS OF BISBENZYLISOQUINOLINES FOR THE TREATMENT OF MALIGNANCIES” (priority 2023, published 2024).
pIC50: −log10 of the molar value. “And” between values parts separate entries of the source, which are not always exact repeats. Equal entries are not always repeated.

Tests used:
bcr-abl transcripts = assay: qPCR assay for bcr-abl and abl transcripts in primary and secondary colonies; assay type: cell-based, human; conditions: 10 μM, number of colonies
Experimental: After 14-16 days in culture, individual colonies were plucked from the solvent control and tetrandrine at 10 μM test condition into 75 μL of buffer RLT (Qiagen). Secondary replated colonies were collected and washed with 2 mL of 1× PBS, frozen at −80° C. and then lysed with 75 μL of buffer RLT (Qiagen). RNA was isolated using the Rneasy Micro kit according to the manufacture's instructions. Because the cell numbers in each colony were low, 20 ng of carrier RNA was included in each reaction to promote a better RNA yield. After elution, the entire isolation was subjected to a cDNA conversion using the high-capacity cDNA conversion kit (Life Technologies).
Using cDNA derived from both primary and secondary replated colonies, qPCR assay was used to determine whether colonies were positive for ber-abl transcripts. Primers and probes were designed based on the publication from Luthra, et.al. and are designed to anneal to ber-abl (target) and abl (endogenous control) cDNA. Each target was assayed in duplicated in a 20 μL reaction volume. Samples were denatured at 95° C. for 10 min and then amplified for 40 rounds of 95° C. for 15 s and 60° C. for 60 s.
To determine whether a colony was normal (bcr-abl negative and abl positive) or diseased (bcr-abl and abl positive), a TaqMan®-based qPCR test was used. In order to score the colonies positive or negative, the following scoring strategy was performed. All colonies were assayed in duplicate for each target. If a singleton reaction yielded a Ct then the reaction scored a 1. If no Ct was recorded, a score of 0 was given. From here, we used a logic test to score the colonies into four different categories: bcr-abl and abl, abl only, bcr-abl only or both negative. In order to be placed in a category, a colony must score a 1 in both reactions. However, if a colony only scored a 1 for one out of the two reactions, this colony was removed from the analysis. If a colony scored a 1 for each reaction (both bcr-abl and abl) the colony was placed into the ber-abl and abl category, signifying it as a diseased colony. Alternatively, if a colony scored a 1 in only both of the bcr-abl reactions or a 1 in only both the abl reactions, the colony was placed in the bcr-abl only or abl only category, respectively. If the colony scored a 0 for both targets (bcr-abl and abl) then the colony was placed in the both negative category.

[1] = test system: human CML bone marrow-derived cells; assay: Colony forming cell (CFC) assay on CML patient bone marrow cells; conditions: colony number, methylcellulose-based medium, 14-16 days
Experimental: Clonogenic progenitors were set up using buman CML bone marrow-derived cells in the methylcellulose-based media formulation described above. Test articles were added to the medium to give final concentrations as described above. Standard cultures containing IMDM+10% FBS as well as solvent control cultures containing DMSO were also initiated. Following addition of the test compounds and cells, the tubes were vortexed to ensure equal distribution of compound and cells throughout the matrix. The cultures were set up in triplicate at 0.1×10^6 cells per culture (lot #BBM1000-E1110025705111110G4) for each control and each compound concentration. The cultures were placed in a humidified incubator (37° C., 5% CO2). Following 14-16 days in culture, the colonies were assessed and scored by trained personnel.
Human bone marrow light-density cells derived from CML patient bone marrow (Conversant Bio, Alabama), were stored in the gaseous phase of liquid nitrogen until required. On the day of the experiment, the cells were thawed rapidly, the contents of the vial were diluted in 10 mL of Iscove's Modified Dulbecco's Medium containing 10% fetal bovine serum (IMDM+10% FBS) and washed by centrifugation (approximately 1200 r.p.m. for 10 minutes, room temperature). The supernatant was discarded, and the cell pellets were resuspended in a known volume of IMDM+10% FBS. A cell count (3% glacial acetic acid) and viability assessment (trypan blue exclusion test) […] Tetrandrine (10 μM) for 14 days. After treatment, primary and secondary colonies were grown and analyzed by qPCR to determine BCR-ABL or ABL only cells.
Human erythroid (CFU-E and BFU-E) and myeloid (CFU-GM) colony enumeration were performed by trained personnel. In addition, the distribution of colony types as well as general colony and cellular morphology were analyzed. […] For statistical analysis, colony numbers in compound-treated cultures were compared to the solvent control cultures.

hERG = hERG (Homo sapiens, UniProt Q12809); assay: hERG inhibition, IonWorks HT electrophysiology in CHO cells stably transfected with hERG
CAMKII gamma = target: T1, CAMKII gamma (Homo sapiens, UniProt Q13555); assay: CAMKII gamma kinase activity (ADP Glo); assay type: biochemical
T1 construct: purchased Promega V3531
Experimental: An enzymatic study was conducted to evaluate the inhibition of CAMKII gamma by ES-3000 (Tetrandrine). CAMKII gamma kinase activity was measured using […] purchased from Promega following the Promega protocol. CAMKII enzyme system purchased from Promega (V3531). ADP Glo was used for detection. Assay optimized for linearity of protein and time. Conditions for inhibitor screening 25 ng CAMKII, 20 min. incubations, inhibitor or DMSO (5%) at RT in 20 uL total volume. Inhibitors, ATP (10 or 50 uM), substrates and buffer added to tubes and reactions started with enzyme. […] Reactions terminated at 20 min. by adding ADP Glo reaction following manufactures instructions. All reactions were done in duplicate. Calculations of percent (%) inhibition determined by dividing the mean activity at each condition by the mean of the DMSO control times 100.

HCT116 cells = conditions: cited from earlier work
β-catenin = β-catenin level in K562 cell extracts by western blot; assay type: cell-based, human
Experimental: Levels of β-catenin and β-actin proteins in untreated and tetrandrine-treated K562 cell lines by Western blot.
Antibodies for Western Blot analysis against β-catenin and β-actin were purchased from Santa Cruz Biotechnology (Santa Cruz, CA) Protein lysates were prepared by lysing cells in RIPA buffer and immunoprecipitation.
Briefly, the method to quantitate β-catenin protein by western blot was as follows: Extracts of K562 cells (untreated and treated with various concentrations of tetrandrine) were concentrated to 0.4 ml using Centricon-3 column to yield a protein concentration of approximately 2 mg/ml. Samples were mixed with 5X Laemmli buffer and loaded on 8-16% Tris-Glycine gradient gel, then polyacrylamide gel electrophoresis (PAGE) was run at 85 volts for 100 minutes at 6° C. and proteins were transferred on PVDF membrane at 70 Volts for 85 minutes at 8° C. Membrane was blocked with 5% milk in Tris-buffered Saline containing 0.1% TW-20 (TBST). Membrane was incubated with primary antibody for 18 hours at 4° C. followed by 3 washes, 5 minutes each, with TBST and incubated with secondary antibody in TBST for 2 hours at 25° C. […] Protein bands in WB images were quantitated using Molecular Imaging software pack MIS-4.0 software and tabulated in Excel spreadsheet.

[2] = test system: leukemic cells and leukemic stem cells; assay: BCR-ABL induced CML mouse model (bone marrow transplantation); assay type: in vivo, C57BL/6 mice
Excerpt: The method is as follows: 20 C57BL/6 mice were used as donors for bone marrow transduction. They were primed by intravenous injection with 5-fluorouracil four days before collecting cells. Bone marrow cells were harvested from femurs and tibias. Bone marrow cells were infected with a retrovirus containing MSCV-BCR-ABL-IRES-GFP twice 60 recipient mice were lethally irradiated by two doses of 550cGy before bone marrow transplantation by intravenous injection with 500,000 cells/mouse.
In an in vivo model, the effectiveness of Tetrandrine was tested on CML stem cells. The objective of the study was to determine the survival of leukemic cells and leukemic stem cells in response to the treatment with Tetrandrine. After priming donor C57BL/6 (B6) mice with intravenous injections of 5-fluorouracil for four days, bone marrow cells were harvested from femurs and tibia, then transfected twice with retrovirus containing MSCV-BCR-ABL-IRES-GFP. Recipient mice were lethally irradiated by two doses of 550 cGy before bone marrow transplantation by intravenous injection with 5×10^5 cells/mouse. Blood from recipient mice was tested for disease induction one week after transduction by FACS analysis for GFP (FIG. 7A). […] Treatments started on day 8 after bone marrow transplantation (FIG. 7B).

P-glycoprotein (P-gp) = P-glycoprotein (P-gp) (Homo sapiens, UniProt P08183); conditions: cited from earlier work
calmodulin (CaM) = calmodulin (CaM) (Homo sapiens, UniProt P0DP23); conditions: Ma 2013; cited from earlier work
[3] = test system: human breast, colon carcinoma, and hepatoma cell lines; conditions: read-out: IC50 range; cited from earlier work
[4] = test system: human CML bone marrow-derived cells; assay: Replating assay (secondary clonal growth of plucked CFU-GM colonies); assay type: cell-based
Experimental: Following enumeration of the erythroid and myeloid progenitors, individual CFU-GM colonies were plucked from the matrix and diluted in 20 μL of IMDM+10% FBS. The colony was dispersed in this medium by gentle pipetting. This cellular mixture was then added to a well of a 96 well plate containing 180 μL of the ColonyGel medium described above. […] Both the number of wells which supported clonal growth as well as colony number per well were recorded.

[5] = Tetrandrine 150 mg/kg orally 1×/day versus Imatinib 100 mg/kg 2×/day, treatment from day 8 after bone marrow transplantation

T1 sequence (Q13555 whole entry): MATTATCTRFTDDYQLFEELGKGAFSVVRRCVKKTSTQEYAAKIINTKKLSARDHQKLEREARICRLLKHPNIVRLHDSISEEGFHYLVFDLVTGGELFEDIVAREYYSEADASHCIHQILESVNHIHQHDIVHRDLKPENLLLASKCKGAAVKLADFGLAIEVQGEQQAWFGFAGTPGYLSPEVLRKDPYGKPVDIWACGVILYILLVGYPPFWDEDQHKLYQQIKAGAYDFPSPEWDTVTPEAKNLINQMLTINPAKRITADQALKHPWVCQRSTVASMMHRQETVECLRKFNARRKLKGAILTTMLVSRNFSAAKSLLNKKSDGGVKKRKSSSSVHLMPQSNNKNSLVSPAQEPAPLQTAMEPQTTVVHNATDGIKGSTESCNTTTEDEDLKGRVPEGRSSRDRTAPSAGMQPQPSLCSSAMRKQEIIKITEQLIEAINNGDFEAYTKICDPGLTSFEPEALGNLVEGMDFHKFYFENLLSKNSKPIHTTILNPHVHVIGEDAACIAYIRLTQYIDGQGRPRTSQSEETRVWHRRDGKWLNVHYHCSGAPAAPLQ
hERG, sequence (Q12809 whole entry): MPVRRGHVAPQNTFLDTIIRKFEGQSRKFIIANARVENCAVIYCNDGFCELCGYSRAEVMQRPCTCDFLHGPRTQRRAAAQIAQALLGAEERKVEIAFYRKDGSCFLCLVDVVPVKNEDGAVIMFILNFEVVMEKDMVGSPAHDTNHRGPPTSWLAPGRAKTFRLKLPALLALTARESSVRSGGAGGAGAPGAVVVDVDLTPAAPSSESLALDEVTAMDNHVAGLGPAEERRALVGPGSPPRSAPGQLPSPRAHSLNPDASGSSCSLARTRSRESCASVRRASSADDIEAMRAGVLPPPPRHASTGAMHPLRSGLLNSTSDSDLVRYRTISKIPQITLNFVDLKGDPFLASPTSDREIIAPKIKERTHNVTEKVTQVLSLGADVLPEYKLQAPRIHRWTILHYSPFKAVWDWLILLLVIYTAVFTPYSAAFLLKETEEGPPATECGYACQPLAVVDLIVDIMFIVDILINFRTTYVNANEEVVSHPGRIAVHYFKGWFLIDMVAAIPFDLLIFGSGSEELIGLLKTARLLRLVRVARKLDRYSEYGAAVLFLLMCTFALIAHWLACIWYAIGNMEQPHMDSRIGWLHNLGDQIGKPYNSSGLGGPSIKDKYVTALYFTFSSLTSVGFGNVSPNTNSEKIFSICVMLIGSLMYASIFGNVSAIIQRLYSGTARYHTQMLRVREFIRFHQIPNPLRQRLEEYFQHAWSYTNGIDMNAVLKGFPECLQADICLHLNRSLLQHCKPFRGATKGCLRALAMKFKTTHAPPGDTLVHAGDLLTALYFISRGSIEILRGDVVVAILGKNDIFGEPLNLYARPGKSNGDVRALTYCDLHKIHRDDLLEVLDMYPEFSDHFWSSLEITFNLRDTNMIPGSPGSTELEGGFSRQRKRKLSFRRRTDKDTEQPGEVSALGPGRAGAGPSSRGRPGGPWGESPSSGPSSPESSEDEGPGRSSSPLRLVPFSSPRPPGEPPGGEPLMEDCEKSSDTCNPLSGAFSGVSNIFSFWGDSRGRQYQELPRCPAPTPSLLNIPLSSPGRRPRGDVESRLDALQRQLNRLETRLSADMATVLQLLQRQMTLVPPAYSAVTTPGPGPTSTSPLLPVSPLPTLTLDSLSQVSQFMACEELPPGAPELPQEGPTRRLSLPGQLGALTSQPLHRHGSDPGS
P-glycoprotein (P-gp), sequence (P08183 whole entry): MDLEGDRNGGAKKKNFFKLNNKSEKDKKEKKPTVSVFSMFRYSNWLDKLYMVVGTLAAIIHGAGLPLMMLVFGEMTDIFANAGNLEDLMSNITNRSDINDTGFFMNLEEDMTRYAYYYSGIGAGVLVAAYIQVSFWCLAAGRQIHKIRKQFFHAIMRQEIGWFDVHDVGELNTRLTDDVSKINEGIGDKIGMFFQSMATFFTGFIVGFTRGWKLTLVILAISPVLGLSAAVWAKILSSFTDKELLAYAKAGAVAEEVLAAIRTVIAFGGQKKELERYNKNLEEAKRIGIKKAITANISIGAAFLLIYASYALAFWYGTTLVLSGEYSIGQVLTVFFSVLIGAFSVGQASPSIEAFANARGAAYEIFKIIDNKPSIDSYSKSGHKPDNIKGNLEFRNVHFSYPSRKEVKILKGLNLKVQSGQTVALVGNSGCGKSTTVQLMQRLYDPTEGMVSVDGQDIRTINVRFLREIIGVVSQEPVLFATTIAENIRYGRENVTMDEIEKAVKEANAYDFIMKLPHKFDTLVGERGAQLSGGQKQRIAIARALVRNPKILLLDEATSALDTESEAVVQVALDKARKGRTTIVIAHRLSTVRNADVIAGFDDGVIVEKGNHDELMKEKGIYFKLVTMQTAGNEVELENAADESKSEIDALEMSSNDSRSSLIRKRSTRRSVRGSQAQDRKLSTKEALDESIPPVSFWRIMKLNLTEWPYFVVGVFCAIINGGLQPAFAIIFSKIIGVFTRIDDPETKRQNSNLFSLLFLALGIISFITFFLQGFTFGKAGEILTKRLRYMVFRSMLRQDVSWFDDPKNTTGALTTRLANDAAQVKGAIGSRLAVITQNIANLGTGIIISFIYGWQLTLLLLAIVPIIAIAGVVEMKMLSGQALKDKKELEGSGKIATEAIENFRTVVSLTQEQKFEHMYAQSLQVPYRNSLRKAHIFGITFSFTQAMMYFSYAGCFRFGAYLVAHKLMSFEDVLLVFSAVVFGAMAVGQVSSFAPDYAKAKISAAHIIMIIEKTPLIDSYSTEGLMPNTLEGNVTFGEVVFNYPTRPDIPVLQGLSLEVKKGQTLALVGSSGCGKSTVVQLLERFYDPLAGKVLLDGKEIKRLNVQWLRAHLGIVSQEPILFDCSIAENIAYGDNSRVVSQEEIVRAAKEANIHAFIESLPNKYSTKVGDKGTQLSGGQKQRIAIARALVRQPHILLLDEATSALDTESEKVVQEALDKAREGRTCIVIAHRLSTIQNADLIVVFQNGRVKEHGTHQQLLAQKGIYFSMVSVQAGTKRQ

Substance: 6,6′,7,12-tetramethoxy-2,2′-dimethyl-berbaman [ES-3000]
- abl only (bcr-abl transcripts; Primary colonies): 1
- bcr-abl only (bcr-abl transcripts; Primary colonies): 1
- both negative (bcr-abl transcripts; Primary colonies): 4
- abl only (bcr-abl transcripts; Secondary colonies): 1
- bcr-abl only (bcr-abl transcripts; Secondary colonies): 0
- both negative (bcr-abl transcripts; Secondary colonies): 9
- BFU-E ([1]; 0.1 μM): 22 ± 4
- CFU-E ([1]; 0.1 μM): 11 ± 1
- CFU-GM ([1]; 0.1 μM): 55 ± 5
- Total Erythroid ([1]; 0.1 μM): 33 ± 3
- BFU-E ([1]; 1 μM): 22 ± 4
- CFU-E ([1]; 1 μM): 10 ± 2
- CFU-GM ([1]; 1 μM): 54 ± 2
- Total Erythroid ([1]; 1 μM): 33 ± 3
- BFU-E ([1]; 3 μM): 14 ± 3
- CFU-E ([1]; 3 μM): 9 ± 2
- CFU-GM ([1]; 3 μM): 52 ± 5
- Total Erythroid ([1]; 3 μM): 23 ± 2
- CFU-GM ([1]; 10 μM): 26 ± 2
- plasma levels at which QT prolongation might be expected (hERG; subjects, interpretation of hERG IC50): above 249 ng/ml
- safety for cardiac conduction-related toxicity (hERG IC50 versus Cmax) (hERG; utilizing Cmax from previous human clinical experience (Oldham 1998, Oldham 2000)): 13 fold
- mean (units) (CAMKII gamma; 30 uM inhibitor, 10 uM ATP): 3.09 units
- units (duplicate reactions) (CAMKII gamma; 30 uM inhibitor, 10 uM ATP): 2.75 units and 3.43 units
- mean (units) (CAMKII gamma; 30 uM inhibitor, 50 uM ATP): 10.55 units
- units (duplicate reactions) (CAMKII gamma; 30 uM inhibitor, 50 uM ATP): 10.4 units and 10.7 units
- mean (units) (CAMKII gamma; 100 uM inhibitor, 10 uM ATP): 2.87 units
- units (duplicate reactions) (CAMKII gamma; 100 uM inhibitor, 10 uM ATP): 2.5 units and 3.24 units
- mean (units) (CAMKII gamma; 100 uM inhibitor, 50 uM ATP): 7.955 units
- units (duplicate reactions) (CAMKII gamma; 100 uM inhibitor, 50 uM ATP): 8.81 units and 7.1 units
- mean (units) (CAMKII gamma; 250 uM inhibitor, 10 uM ATP): 0.41 units
- units (duplicate reactions) (CAMKII gamma; 250 uM inhibitor, 10 uM ATP): 0.34 units and 0.48 units
- anticancer activity in combination with 5-FU (HCT116 cells; HCT116 (He 2011)): synergistic anticancer activity with 5-FU
- migration and invasion capabilities (HCT116 cells; HCT116 cells (He 2011)): reduced migration and invasion capabilities
- β-catenin band (β-catenin; K562 cells treated with 20 and 40 uM): absent
- β-catenin level (β-catenin; K562 cells, 0 to 40 uM, 24 hours, western blot): lowers the β-catenin level in K562 cells in a dose dependent manner
- spleen weight ([2]; Tetrandrine 150 mg/kg in 0.1N HCl, 1 time per day): reduces spleen weight
- development of circulating leukemic cells [2, 5]: superior to Imatinib
- development of leukemic stem cells [2, 5]: superior to Imatinib
- P-gp substrate (P-glycoprotein (P-gp); Susa 2010): not a substrate of P-gp
- reversal of P-glycoprotein-mediated drug resistance (P-glycoprotein (P-gp)): potent and specific activity
- binding to calmodulin (CaM) (calmodulin (CaM)): bind competitively to calmodulin
- pIC50 [3]: 4.98 to 5.82
- Repeating Colony Count (secondary colonies per well) ([4]; colonies plucked from original cultures with ES-3000 @ 10 μM, 96 well plate, 14 days): 1
- average CFC per well ([4]; original cultures with ES-3000 @ 10 μM): three
